Measurements from article PMC4886168, “Effects of solid‐phase extraction of plasma in measuring gut metabolic hormones in fasted and fed blood of lean and diet‐induced obese rats” (Physiological Reports, 2016).
“And” between values parts separate entries of the source, which are not always exact repeats. Equal entries are not always repeated.

Assays:
[1] = tested on: food intake in lean rats; settings: cited from earlier work; for ED50 dose for reducing food intake: 3-h IV infusion, ref Reidelberger et al. 2001, Chelikani et al. 2005a,b
[2] = Plasma peptide levels during IV infusion of anorexigenic doses in lean rats
Description: Leptin doses bracketed the minimal effective dose (1100 ng/kg/min) for reducing food intake in lean rats (Reidelberger et al. 2012). Approximately 45 min after infusion onset, and while the infusion continued, rats were anesthetized with isoflurane (3%), and blood samples (~3 mL) were obtained by cardiac puncture. Samples were immediately transferred to 4 mL EDTA tubes on ice containing 40 μL of a mixture of 0.9 mL DPP4 inhibitor, 0.1 mL Protease Inhibitor Cocktail, and 0.1 g AEBSF. Plasma was obtained by centrifugation within 30 min of sample collection and stored at −70°C until solid‐phase extraction of samples followed by the multiplex assay. Infusions were administered using a syringe infusion pump (Harvard Apparatus, South Natick, MA). At the end of the experiment, data from a rat were excluded if its jugular vein catheter was not patent. A catheter was deemed patent if the rat lost consciousness within 10 sec of a bolus injection of the short‐acting anesthetic brevital into the catheter.
Plasma samples were extracted using procedures similar to those described previously (Dai et al. 2008). Briefly, an OASIS HLB LP (60 mg) 96‐well extraction plate (Waters Corp., Milford, MA) was prepared by passing 1 mL acetonitrile twice through each well, followed by 3, 1 mL washes of 1% trifluoroacetic acid (TFA; 1:100 water [vol/vol]). Flows through the wells were facilitated using a Waters vacuum manifold (5 inch Hg). Plasma (1 mL) was then added to each well; 10 min later, flows were facilitated using vacuum. Wells were then washed three times with 1 mL 1% TFA (facilitated using vacuum). Extracts were eluted into individual tubes by adding 1 mL of 1% TFA, 60% acetonitrile in water (vol/vol) to each well; 10 min later, flows were facilitated using vacuum. Samples of each extract (0.9 mL) were frozen, and then lyophilized to dryness. At time of assay, dried extracts for each sample were dissolved with 0.45 mL of assay buffer, producing a twofold higher concentration for eluted plasma components.
The multiplex assay employed a BioTek ELx405 plate washer fitted with a magnetic holder, and a Luminex 200 analyzer. […] Initial assays compared peptide standards used in the multiplex assay with those used in the individual ELIAs: multiplex assay standards were included in the individual ELIAs, and standards from the ELIAs were included in the multiplex assay.
In experiments examining the effects of solid‐phase extraction of plasma samples on specific recoveries of the seven peptides added to lean and obese plasma, measured peptide concentrations in each plasma sample were plotted against expected concentrations (after subtracting plasma alone values), and linear regression analyses were performed. […] Planned comparisons of treatment means were evaluated by t‐tests or paired t‐tests. […]

[3] = rats, amylin 15 ng/kg/min IV; solid-phase extraction of plasma, amylin radioimmunoassay; ref Arnelo et al. 1998; cited from earlier work
Description: With respect to the pancreatic hormone amylin, we previously provided evidence that postprandial plasma levels of amylin are not quite sufficient to inhibit food intake in rats by an endocrine mechanism (Arnelo et al. 1998). […] Here, we provide evidence using solid‐phase extraction of plasma and the multiplex assay for active amylin that a large chow meal in ...

For `CC[C@H](C)[C@H](NC(=O)[C@H](Cc1ccccc1)NC(=O)[C@H](CCC(=O)O)NC(=O)[C@H](CCCCN)NC(=O)[C@H](C)NC(=O)[C@H](C)NC(=O)[C@H](CCC(N)=O)NC(=O)CNC(=O)[C@H](CCC(=O)O)NC(=O)[C@H](CC(C)C)NC(=O)[C@H](Cc1ccc(O)cc1)NC(=O)[C@H](CO)NC(=O)[C@H](CO)NC(=O)[C@@H](NC(=O)[C@H](CC(=O)O)NC(=O)[C@H](CO)NC(=O)[C@@H](NC(=O)[C@H](Cc1ccccc1)NC(=O)[C@@H](NC(=O)CNC(=O)[C@H](CCC(=O)O)NC(=O)[C@H](C)NC(=O)[C@@H](N)Cc1c[nH]cn1)[C@@H](C)O)[C@@H](C)O)C(C)C)C(=O)N[C@@H](C)C(=O)N[C@@H](Cc1c[nH]c2ccccc12)C(=O)N[C@@H](CC(C)C)C(=O)N[C@H](C(=O)N[C@@H](CCCCN)C(=O)NCC(=O)N[C@@H](CCCNC(=N)N)C(N)=O)C(C)C` [GLP‐1, Glucagon‐like peptide‐1], the “ED50 dose for reducing food intake” value ([1]; lean rats) is given as 76 ng/kg/min, the “effect on food intake” value ([1]; rats, IV infusion of GLP-1 at 33 ng/kg/min, ref Chelikani et al. 2005b) is given as “sufficient to decrease food intake” and the “best-fit linear regression equation, Y plasma peptide concentration (pg/mL), X peptide dose (ng/kg/min)” value ([2]; lean rats, 45 min IV infusion, three dose levels incl. 0, extracted plasma, multiplex assay, multiplex standards as reference) is given as 37 + 75X pg/mL. For the same molecule, the “plasma level at ~ED50 dose relative to that produced by the large meal” value ([2]; lean rats, IV ~ED50 doses (56, 68, 39 ng/kg/min) vs postprandial level 30 min after meal onset, ELIA standards as reference) was 30–60 fold and 30 fold and the “predicted plasma active GLP-1 level at minimal anorexigenic dose” value ([2]; regression prediction for GLP-1 1.6 ng/kg/min IV, dose not administered here, [95% CI]) was 53 [−400, 510] pg/mL.

In the case of `CC(C)C[C@H](NC(=O)[C@H](CC(N)=O)NC(=O)[C@H](CC(N)=O)NC(=O)[C@H](CO)NC(=O)[C@H](CO)NC(=O)[C@H](CCCNC(=N)N)NC(=O)[C@@H](NC(=O)[C@H](CC(C)C)NC(=O)[C@H](Cc1ccccc1)NC(=O)[C@H](CC(N)=O)NC(=O)[C@H](C)NC(=O)[C@H](CC(C)C)NC(=O)[C@H](CCCNC(=N)N)NC(=O)[C@H](CCC(N)=O)NC(=O)[C@@H](NC(=O)[C@H](C)NC(=O)[C@@H]1CSSC[C@H](NC(=O)[C@@H](N)CCCCN)C(=O)N[C@@H](CC(N)=O)C(=O)N[C@@H]([C@@H](C)O)C(=O)N[C@@H](C)C(=O)N[C@@H]([C@@H](C)O)C(=O)N1)[C@@H](C)O)C(C)C)C(=O)NCC(=O)N1CCC[C@H]1C(=O)N[C@H](C(=O)N[C@@H](CC(C)C)C(=O)N1CCC[C@H]1C(=O)N1CCC[C@H]1C(=O)N[C@H](C(=O)N[C@@H](CC(N)=O)C(=O)N[C@H](C(=O)NCC(=O)N[C@@H](CO)C(=O)N[C@@H](CC(N)=O)C(=O)N[C@H](C(=O)N[C@@H](Cc1ccc(O)cc1)C(N)=O)[C@@H](C)O)C(C)C)[C@@H](C)O)C(C)C` [Amylin], the “ED50 dose for reducing food intake” value ([1]; lean rats) is listed as 31 ng/kg/min, the “plasma amylin produced by anorexigenic IV dose” value [3] is listed as 140 pg/mL and the “predicted plasma active amylin level at minimal anorexigenic dose” value ([2]; rat, in vivo, iv) is listed as 450 [−460, 1360] pg/mL.

B1: Leptin (protein, UniProt P41160 22-167, looked up)
Leptin: VPIQKVQDDTKTLIKTIVTRINDISHTQSVSAKQRVTGLDFIPGLHPILSLSKMDQTLAVYQQVLTSLPSQNVLQIANDLENLRDLLHLLAFSKSCSLPQTSGLQKPESLDGVLEASLYSTEVVALSRLQGSLQDILQQLDVSPEC
In the case of B1, the “minimal effective dose for reducing food intake” value ([1]; lean rats, IV infusion of leptin, ref Reidelberger et al. 2012) is listed as 1100 ng/kg/min.
